Laboratory results taken from paper PMC9586938, “Picomolar fluorescent probes for compound affinity determination to carbonic anhydrase IX expressed in live cancer cells” (Scientific Reports, 2022).

Assays:
[1] = tested on: HeLa CAIX-KO and normoxia-grown WT HeLa cells; assay: Fluorescein-labeled compound dosing to CAIX-KO and normoxia-grown HeLa cells (non-specific binding); assay type: cell-based, human
Description: HeLa cell culture was grown in 12-well plates, either under hypoxia (1% O2) or under normoxia (21% O2), for 70 to 76 h. The medium was removed. Then 200 µL of serially diluted compound (twelve twofold steps) in the FB medium, usually starting at 80 nM (80, 40, 20, …, 0 nM), was added and incubated at 37 ℃ under normoxia in the CO2 incubator for 20 min (2 or 5 min in some experiments where specified). Then the compound solution was removed and the cells were washed 3 times for 1.5–2 min with 400 µL of PBS at RT. Then 180 µL of TrypLe express enzyme (ThermoFisher) was added to each well and incubated in CO2 incubator for 5 min to 10 min until the cells deattached from the surface. After addition of 20 µL of Defined Trypsin Inhibitor solution (ThermoFisher), cells were resuspended by pipetting and 150 µL of the suspension from each well were transferred to black Thermo Scientific™ Nunc MicroWell 96-Well Optical-Bottom Plates for fluorescence and absorbance measurements. The fluorescence was recorded at 485 nm excitation and 520 nm emission wavelengths in the plate reader (Synergy HTX, BioTek). The absorbance was recorded at 650 nm to measure the optical density of the cell suspension.
The compound solution was prepared by weighing 3–5 mg of a purified compound and dissolving in DMSO at 10 mM concentration. The 1 mM compound stock in DMSO was prepared by taking 10 µL of 10 mM stock and adding to 90 µL DMSO. The 10 µM compound stock was prepared by taking 10 µL of 1 mM compound stock in DMSO and adding 990 µL of the FB medium (this stock contained 1% of DMSO). Then 80 nM compound solution was prepared by taking 10 µL of 10 µM solution and adding 1.24 mL of the FB medium and placed to the first Eppendorf tube. Then 300 µL of FB medium were added to the Eppendorf tubes 2 to 12. A serial dilution was performed by taking 300 µL of solution from tube 1 to 2, then from 2 to 3 and so on while mixing vigorously at each step. No solution was transferred to the last tube thus it contained only FB medium and no compound. Then 200 µL from 12 tubes were transferred to the 12 wells of cell culture-containing 12-well plate, starting from the lowest concentration.
This equation was fit to the dosing curves of several fluorescently-labeled ligands to both the cells grown in hypoxia and in normoxia, both to the WT and CRISPR-Cas9 CAIX knockout cells. The cells bound both the GZ19-32 and GZ20-40 ligands that differed only in the length of the linker and both contained the same head-group. […] Furthermore, the ligands that had their sulfonamide amino group substituted with the methyl completely abandoned their capability of binding CAIX in this concentration region. The binding was also abolished for the CAIX-KO HeLa cells.

CAVB = target: T1, CAVB (Homo sapiens, UniProt Q9Y2D0); assay: Thermal shift assay (TSA), recombinant CAVB; assay type: binding; conditions: 37 °C, pH 7.0, observed (not intrinsic)
T1 construct: made in house; host or cells: E. coli

CAVII = target: T2, CAVII (Homo sapiens, UniProt P43166); assay: Thermal shift assay (TSA), recombinant CAVII; assay type: binding; conditions: 37 °C, pH 7.0, observed (not intrinsic)
T2 construct: made in house; host or cells: E. coli

CAVI = target: T3, CAVI (Homo sapiens, UniProt P23280); assay: Thermal shift assay (TSA), recombinant CAVI; assay type: binding; conditions: 37 °C, pH 7.0, observed (not intrinsic)
T3 construct: made in house; host or cells: E. coli
Description: (§1) The binding affinities of all fluorescein-containing compounds were determined for all 12 catalytically active CA isozymes by the thermal shift assay (TSA). […] However, the SFA technique cannot determine the affinities lower than the enzyme concentration used in the assay. […] In addition, we used isothermal titration calorimetry (ITC), the standard assay to determine affinity and enthalpy of protein–ligand binding. […] Therefore, ITC was used only to determine the enthalpy of interaction and confirm the ordering of compound affinities.
(§2) All twelve catalytically active human CA isozymes were prepared recombinantly as previously described. Isozymes CAIX, CAXII, and CAXIV were the catalytic domains of the proteins[14],[38]. All isozymes were expressed in E. coli except CAIX that has been prepared in mammalian cells. The proteins were chromatographically purified on ion-exchange or benzene sulfonamide containing affinity columns. Protein MW was confirmed by mass spectrometry with 1 Da precision as predicted from gene sequence.
(§3) Compound affinities for the twelve catalytically active CA isozymes were determined by the thermal shift assay as previously described[30],[39]. Protein solutions containing 1,8-anilinonaphthalenesulfonate fluorescent probe were heated from 25 to 100 °C at a rate of one degree per minute while following the fluorescence of the probe. The temperature scanning curves provided the melting temperature Tm of the protein. The Tm has a distinct dependence on the concentration of a compound. Stronger binders shift the Tm to a greater extent than the weak binders. The Tm dependencies on compound concentration were fit to obtain the affinity Kd[40].

CAIV = target: T4, CAIV (Homo sapiens, UniProt P22748); assay: Thermal shift assay (TSA), recombinant CAIV; assay type: binding; conditions: 37 °C, pH 7.0, observed (not intrinsic)
T4 construct: made in house; host or cells: E. coli

recombinant human CAIX = target: T5, recombinant human CAIX (Homo sapiens, UniProt Q16790); assay: Isothermal titration calorimetry (ITC) with recombinant CAIX; assay type: binding
T5 construct: Isozymes CAIX, CAXII, and CAXIV were the catalytic domains of the proteins; made in house; host or cells: mammalian cells
Description: as §1
Affinities of several selected compounds to several human CA isozymes have been determined by ITC as described previously[43],[44]. The protein solution was placed in the cell of iTC200 titration calorimeter while the compound solution in identical buffer was placed in the syringe. After thermal equilibration, the compound solution was injected into the cell by identical injections. The heat produced during the reaction was measured by the calorimeter providing the shape of the curve that in turn yielded the enthalpy and the affinity Kd of the interaction.
Picomolar Fluorescent Probes for Compound Affinity Determination to Carbonic Anhydrase IX Expressed in Live Cancer Cells
Figure S1. […] The binding affinity of GZ19-32 was too high to be accurately measured by ITC due to the limitation related to the Wiseman parameter C. […]

CAI = target: T6, CAI (Homo sapiens, UniProt P00915); assay: Thermal shift assay (TSA), recombinant CAI; assay type: binding; conditions: 37 °C, pH 7.0, observed (not intrinsic)
T6 construct: made in house; host or cells: E. coli

CAIII = target: T7, CAIII (Homo sapiens, UniProt P07451); assay: Thermal shift assay (TSA), recombinant CAIII; assay type: binding; conditions: 37 °C, pH 7.0, observed (not intrinsic)
T7 construct: made in house; host or cells: E. coli
Description: as §1, §2, §3

CAIX on live HeLa cells = target: T8, CAIX on live HeLa cells (Homo sapiens, UniProt Q16790); assay: Fluorescence microscopy (widefield, SRRF/TIRF) of live HeLa cells stained with fluorescein-labeled compounds; assay type: cell-based; conditions: 10 nM; for staining of live HeLa cells grown under hypoxia: 5 min
T8 construct: recombinant CAIX and endogenous CAIX expressed on the cell surface; endogenous in cells; host or cells: HeLa (WT), grown under hypoxia (1% O2)

[2] = target: T9, CAIX expressed on live HeLa cells (Homo sapiens, UniProt Q16790); assay: Competition of unlabeled compound with 10 nM GZ19-32 on hypoxic HeLa cells (competitive binding model); assay type: cell-based; conditions: fit parameter of the competitive binding model, HeLa cells; read-out: KdB (competing fluorescent compound, component B)
T9 construct: recombinant CAIX and endogenous CAIX expressed on the cell surface; endogenous in cells; host or cells: HeLa (WT), grown under hypoxia (1% O2)

T7 sequence (P07451 whole entry): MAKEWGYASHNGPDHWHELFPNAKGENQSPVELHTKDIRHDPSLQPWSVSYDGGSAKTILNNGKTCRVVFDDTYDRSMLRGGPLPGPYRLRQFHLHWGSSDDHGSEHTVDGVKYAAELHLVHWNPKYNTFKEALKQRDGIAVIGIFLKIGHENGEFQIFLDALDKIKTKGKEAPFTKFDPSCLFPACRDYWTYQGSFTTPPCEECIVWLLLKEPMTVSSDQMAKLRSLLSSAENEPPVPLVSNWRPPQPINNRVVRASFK
T6 sequence (P00915 whole entry): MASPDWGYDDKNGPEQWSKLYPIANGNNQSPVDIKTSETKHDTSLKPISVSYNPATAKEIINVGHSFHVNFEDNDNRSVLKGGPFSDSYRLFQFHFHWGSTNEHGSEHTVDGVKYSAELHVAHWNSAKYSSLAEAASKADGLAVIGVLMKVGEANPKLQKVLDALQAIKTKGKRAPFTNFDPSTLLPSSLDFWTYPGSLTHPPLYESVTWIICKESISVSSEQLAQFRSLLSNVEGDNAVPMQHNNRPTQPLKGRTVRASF
T2 sequence (P43166 whole entry): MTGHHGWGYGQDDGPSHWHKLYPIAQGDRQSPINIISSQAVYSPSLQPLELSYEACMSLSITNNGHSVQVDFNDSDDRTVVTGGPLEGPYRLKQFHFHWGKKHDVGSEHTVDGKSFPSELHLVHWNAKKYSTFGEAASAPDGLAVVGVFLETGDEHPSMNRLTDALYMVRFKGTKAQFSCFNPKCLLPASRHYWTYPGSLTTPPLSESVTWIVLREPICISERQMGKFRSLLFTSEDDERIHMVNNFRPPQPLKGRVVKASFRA
T1 sequence (Q9Y2D0 34-317): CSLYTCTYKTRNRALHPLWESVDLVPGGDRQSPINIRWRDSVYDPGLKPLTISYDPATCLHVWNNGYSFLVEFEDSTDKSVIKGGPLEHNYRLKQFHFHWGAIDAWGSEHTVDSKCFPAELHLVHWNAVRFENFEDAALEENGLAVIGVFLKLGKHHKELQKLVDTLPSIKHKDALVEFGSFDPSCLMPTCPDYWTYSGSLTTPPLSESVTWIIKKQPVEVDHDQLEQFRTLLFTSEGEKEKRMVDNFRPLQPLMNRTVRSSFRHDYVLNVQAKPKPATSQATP
T3 sequence (P23280 18-308): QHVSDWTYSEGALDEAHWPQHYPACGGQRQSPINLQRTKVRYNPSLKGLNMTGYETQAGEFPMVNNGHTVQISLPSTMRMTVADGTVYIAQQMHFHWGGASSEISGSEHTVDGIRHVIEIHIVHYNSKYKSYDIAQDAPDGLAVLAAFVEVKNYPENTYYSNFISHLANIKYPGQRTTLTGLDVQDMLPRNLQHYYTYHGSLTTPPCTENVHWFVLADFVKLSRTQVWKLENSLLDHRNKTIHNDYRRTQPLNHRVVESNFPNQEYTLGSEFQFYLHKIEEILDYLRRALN
T4 sequence (P22748 19-312): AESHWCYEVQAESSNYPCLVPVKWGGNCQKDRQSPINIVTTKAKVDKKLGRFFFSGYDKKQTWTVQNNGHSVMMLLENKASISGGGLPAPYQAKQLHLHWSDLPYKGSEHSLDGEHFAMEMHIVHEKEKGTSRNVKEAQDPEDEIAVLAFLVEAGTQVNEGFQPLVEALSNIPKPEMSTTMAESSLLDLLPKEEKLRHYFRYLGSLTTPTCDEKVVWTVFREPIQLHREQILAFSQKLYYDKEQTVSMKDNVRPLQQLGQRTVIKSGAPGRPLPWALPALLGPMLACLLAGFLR

| Molecule | non-specific binding to cells ([1]; micromolar concentration range, Fig. 9B, 9C) | Kd (CAVB) [µM] | Kd (CAVII) [µM] | Kd (CAVI) [µM] | Kd (CAIV) [µM] | binding to CAIX by ITC (in words) (recombinant human CAIX) | Kd (CAI) [µM] | Kd (CAIII) [µM] | staining of live HeLa cells grown under hypoxia (CAIX on live HeLa cells) | concentration above which compound binds normoxia-grown WT and CAIX-KO HeLa cells ([1]; 5 min incubation, Fig. 9A) [nM] | fluorescence of compound bound to HeLa CAIX-KO cells ([1]; CAIX-KO cells grown under hypoxia, 10 nM to 100 nM) | Kd [2] [µM] | melting point [°C] | Manders overlap coefficient M1, colocalization with H7 CAIX antibody (CAIX on live HeLa cells; hypoxia-grown live HeLa cells) | Manders overlap coefficient M2, colocalization with H7 CAIX antibody (CAIX on live HeLa cells; hypoxia-grown live HeLa cells) | object based spot collocalization with H7 CAIX antibody (CAIX on live HeLa cells; hypoxia-grown live HeLa cells) | pixel based Person's correlation coefficient, colocalization with H7 CAIX antibody (CAIX on live HeLa cells; hypoxia-grown live HeLa cells) | Pearson co-localization coefficient with CAXII-selective 1B10 antibody (CAIX on live HeLa cells; hypoxia-grown live HeLa cells, SRRF/TIRF) |
| --- | --- | --- | --- | --- | --- | --- | --- | --- | --- | --- | --- | --- | --- | --- | --- | --- | --- | --- |
| 3-((2-(cyclooctylamino)-3,5,6-trifluoro-4-(methylsulfonyl)phenyl)sulfonyl)-N-(3',6'-dihydroxy-3-oxo-3H-spiro[isobenzofuran-1,9'-xanthen]-5-yl)propanamide and 3-((3-(cyclooctylamino)-2,5,6-trifluoro-4-(methylsulfonyl)phenyl)sulfonyl)-N-(3',6'-dihydroxy-3-oxo-3H-spiro[isobenzofuran-1,9'-xanthen]-5-yl)propanamide [GZ20-37] | bound cells in the micromolar concentration range | > 100 | > 100 | > 100 | > 100 | did not show binding | > 100 | > 100 | did not bind | – | – | – | – | – | – | – | – | – |
| NS(=O)(=O)c1c(F)c(F)c(S(=O)(=O)CCC(=O)Nc2ccc3c(c2)C(=O)OC32c3ccc(O)cc3Oc3cc(O)ccc32)c(NC2CCCCCCC2)c1F [GZ19-32, 3-((2-(cyclooctylamino)-3,5,6-trifluoro-4-sulfamoylphenyl)sulfonyl)-N-(3',6'-dihydroxy-3-oxo-3H-spiro[isobenzofuran-1,9'-xanthen]-5-yl)propanamide] | – | 0.013 | 0.005 | 0.33 | 0.1 | too high to be accurately measured | 0.5 | 1.67 | labeled the cell membrane | > 100 | did not show an increase in fluorescence | 0.0002 | 189 to 190 | 0.82 | 0.65 | 0.75 | 0.82 | 0.02 |
